Measurements published in the NIST ThermoML archive (doi:10.1016/j.jct.2006.02.001).
± gives the expanded uncertainty stated by the source.

How the values were obtained:
[1] = xn = mol fraction of the nth substance listed; conditions: 101 kPa, Liquid
[2] = refractive index (Na D-line) (dimensionless); xn = mol fraction of the nth substance listed; conditions: 101 kPa, Liquid

Cc1cc(C)cc(C)c1 [1,3,5-trimethylbenzene] + COc1ccccc1
Conditions | mass density, 288.15 K [kg/m3] | mass density, 293.15 K [kg/m3] | mass density, 298.15 K [kg/m3] | mass density, 303.15 K [kg/m3] | refractive index, 288.15 K | refractive index, 293.15 K | refractive index, 298.15 K | refractive index, 303.15 K
[1], x2 = 0 | 869.17 ± 0.97 | 865.07 ± 0.98 | 861.06 ± 1 | 856.95 ± 1 | – | – | – | –
[1], x2 = 0.1099 | 880.36 ± 0.92 | 876.24 ± 0.94 | 872.21 ± 0.95 | 868.07 ± 0.97 | – | – | – | –
[1], x2 = 0.2441 | 894.89 ± 0.86 | 890.7 ± 0.88 | 886.62 ± 0.9 | 882.42 ± 0.91 | – | – | – | –
[1], x2 = 0.3933 | 912.23 ± 0.79 | 907.95 ± 0.81 | 903.79 ± 0.83 | 899.5 ± 0.84 | – | – | – | –
[1], x2 = 0.509 | 926.57 ± 0.74 | 922.2 ± 0.75 | 917.98 ± 0.77 | 913.64 ± 0.79 | – | – | – | –
[1], x2 = 0.672 | 948.28 ± 0.65 | 943.8 ± 0.67 | 939.52 ± 0.68 | 935.05 ± 0.7 | – | – | – | –
[1], x2 = 0.749 | 959.22 ± 0.6 | 954.69 ± 0.62 | 950.34 ± 0.64 | 945.87 ± 0.65 | – | – | – | –
[1], x2 = 0.8397 | 972.73 ± 0.55 | 968.14 ± 0.57 | 963.75 ± 0.58 | 959.19 ± 0.6 | – | – | – | –
[1], x2 = 0.895 | 981.31 ± 0.51 | 976.67 ± 0.53 | 972.25 ± 0.55 | 967.63 ± 0.57 | – | – | – | –
[1], x2 = 0.967 | 992.94 ± 0.47 | 988.19 ± 0.49 | 983.74 ± 0.5 | 979.01 ± 0.52 | – | – | – | –
[2], x2 = 0 | – | – | – | – | 1.5045 ± 0.0097 | 1.4993 ± 0.0096 | 1.4976 ± 0.0096 | 1.4948 ± 0.0096
[2], x2 = 0.1099 | – | – | – | – | 1.5063 ± 0.0097 | 1.5009 ± 0.0096 | 1.4991 ± 0.0096 | 1.4964 ± 0.0096
[2], x2 = 0.2441 | – | – | – | – | 1.5088 ± 0.0097 | 1.5029 ± 0.0096 | 1.5011 ± 0.0096 | 1.4984 ± 0.0096
[2], x2 = 0.3933 | – | – | – | – | 1.5116 ± 0.0097 | 1.5054 ± 0.0096 | 1.5033 ± 0.0096 | 1.5007 ± 0.0096
[2], x2 = 0.509 | – | – | – | – | 1.5142 ± 0.0097 | 1.5073 ± 0.0096 | 1.5052 ± 0.0096 | 1.5026 ± 0.0096
[2], x2 = 0.672 | – | – | – | – | 1.5175 ± 0.0097 | 1.5103 ± 0.0096 | 1.5079 ± 0.0096 | 1.5054 ± 0.0096
[2], x2 = 0.749 | – | – | – | – | 1.5193 ± 0.0097 | 1.5117 ± 0.0097 | 1.5093 ± 0.0096 | 1.5068 ± 0.0096
[2], x2 = 0.8397 | – | – | – | – | 1.5214 ± 0.0097 | 1.5136 ± 0.0097 | 1.511 ± 0.0096 | 1.5086 ± 0.0096
[2], x2 = 0.895 | – | – | – | – | 1.5228 ± 0.0097 | 1.5147 ± 0.0097 | 1.5121 ± 0.0096 | 1.5097 ± 0.0096
[2], x2 = 0.967 | – | – | – | – | 1.5247 ± 0.0098 | 1.5162 ± 0.0097 | 1.5135 ± 0.0096 | 1.5111 ± 0.0096

COc1ccccc1 [anisole] + Cc1ccccc1C
Conditions | mass density, 288.15 K [kg/m3] | mass density, 293.15 K [kg/m3] | mass density, 298.15 K [kg/m3] | mass density, 303.15 K [kg/m3] | refractive index, 288.15 K | refractive index, 293.15 K | refractive index, 298.15 K | refractive index, 303.15 K
[1], x1 = 0.0984 | 894.18 ± 0.86 | 890.01 ± 0.88 | 886.52 ± 0.89 | 881.84 ± 0.91 | – | – | – | –
[1], x1 = 0.2473 | 910.8 ± 0.8 | 906.56 ± 0.81 | 902.92 ± 0.83 | 898.24 ± 0.84 | – | – | – | –
[1], x1 = 0.376 | 925.35 ± 0.74 | 921 ± 0.76 | 917.17 ± 0.77 | 912.46 ± 0.79 | – | – | – | –
[1], x1 = 0.4951 | 939.01 ± 0.69 | 934.55 ± 0.7 | 930.58 ± 0.72 | 925.89 ± 0.74 | – | – | – | –
[1], x1 = 0.6454 | 956.51 ± 0.61 | 951.98 ± 0.63 | 947.89 ± 0.65 | 943.26 ± 0.67 | – | – | – | –
[1], x1 = 0.7463 | 968.37 ± 0.57 | 963.81 ± 0.58 | 959.66 ± 0.6 | 955.11 ± 0.62 | – | – | – | –
[1], x1 = 0.864 | 982.31 ± 0.51 | 977.72 ± 0.53 | 973.49 ± 0.54 | 968.92 ± 0.56 | – | – | – | –
[1], x1 = 0.938 | 991.11 ± 0.47 | 986.44 ± 0.49 | 982.08 ± 0.51 | 977.48 ± 0.53 | – | – | – | –
[1], x1 = 0.9745 | 995.42 ± 0.46 | 990.69 ± 0.48 | 986.24 ± 0.49 | 981.57 ± 0.51 | – | – | – | –
[1], x1 = 1 | 998.44 ± 0.45 | 993.65 ± 0.46 | 989.15 ± 0.48 | 984.37 ± 0.5 | – | – | – | –
[2], x1 = 0.0984 | – | – | – | – | 1.5091 ± 0.0096 | 1.5061 ± 0.0096 | 1.5033 ± 0.0096 | 1.5015 ± 0.0096
[2], x1 = 0.2473 | – | – | – | – | 1.5118 ± 0.0096 | 1.508 ± 0.0096 | 1.5052 ± 0.0096 | 1.5027 ± 0.0096
[2], x1 = 0.376 | – | – | – | – | 1.5141 ± 0.0096 | 1.5095 ± 0.0096 | 1.5067 ± 0.0096 | 1.5048 ± 0.0096
[2], x1 = 0.4951 | – | – | – | – | 1.516 ± 0.0097 | 1.5107 ± 0.0096 | 1.5079 ± 0.0096 | 1.5059 ± 0.0096
[2], x1 = 0.6454 | – | – | – | – | 1.5193 ± 0.0097 | 1.5128 ± 0.0096 | 1.51 ± 0.0096 | 1.508 ± 0.0096
[2], x1 = 0.7463 | – | – | – | – | 1.521 ± 0.0097 | 1.5145 ± 0.0096 | 1.5117 ± 0.0096 | 1.5096 ± 0.0096
[2], x1 = 0.864 | – | – | – | – | 1.5232 ± 0.0097 | 1.5156 ± 0.0097 | 1.5128 ± 0.0096 | 1.5107 ± 0.0096
[2], x1 = 0.938 | – | – | – | – | 1.5245 ± 0.0097 | 1.5164 ± 0.0097 | 1.5136 ± 0.0096 | 1.5114 ± 0.0096
[2], x1 = 0.9745 | – | – | – | – | 1.5252 ± 0.0097 | 1.5167 ± 0.0097 | 1.5139 ± 0.0096 | 1.5116 ± 0.0096
[2], x1 = 1 | – | – | – | – | 1.5256 ± 0.0098 | 1.5169 ± 0.0097 | 1.5141 ± 0.0096 | 1.5117 ± 0.0096
